Measurements reported in ChEMBL document CHEMBL1147701, “Novel 4-anilinoquinazolines with C-6 carbon-linked side chains: synthesis and structure-activity relationship of a series of potent, orally active, EGF receptor tyrosine kinase inhibitors” (Bioorg Med Chem Lett, 2006).
≈ marks a conversion by molar mass, not a printed value.

Molecular target: Glycogen synthase kinase-3 beta (Homo sapiens, UniProt P49841)
Assay: Inhibition of GSK3-beta
Settings: not given

Sequence of Glycogen synthase kinase-3 beta (P49841 whole entry): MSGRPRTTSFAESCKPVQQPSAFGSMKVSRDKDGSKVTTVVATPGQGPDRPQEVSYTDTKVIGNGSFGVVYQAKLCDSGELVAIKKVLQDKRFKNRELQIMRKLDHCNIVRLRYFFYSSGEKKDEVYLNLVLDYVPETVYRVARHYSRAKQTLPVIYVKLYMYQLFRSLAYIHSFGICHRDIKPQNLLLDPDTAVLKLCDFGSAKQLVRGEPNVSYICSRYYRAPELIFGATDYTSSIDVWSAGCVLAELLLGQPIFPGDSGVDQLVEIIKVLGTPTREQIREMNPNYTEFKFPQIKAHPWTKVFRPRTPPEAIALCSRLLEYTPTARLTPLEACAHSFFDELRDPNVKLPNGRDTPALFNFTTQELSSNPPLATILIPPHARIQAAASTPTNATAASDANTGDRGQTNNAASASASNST

Row | IC50 [µM] | SMILES
1 | > 10 | COc1cc2ncnc(Nc3cccc(Cl)c3F)c2cc1CN(C(C)C)[C@@H](C)C(N)=O
2 | > 10 | COc1cc2ncnc(Nc3cccc(Cl)c3F)c2cc1CN1CCC[C@H]1CC(N)=O

Continued, molecule first:

Row | SMILES | IC50 [µM]
3 | COCCN1CC(C(N)=O)(N(C)Cc2cc3c(Nc4cccc(Cl)c4F)ncnc3cc2OC)C1 | > 10
4 | COc1cc2ncnc(Nc3cccc(Cl)c3F)c2cc1CN(C)C1(C(N)=O)CCN(C(C)C)CC1 | > 10
5 | COc1cc2ncnc(Nc3cccc(Cl)c3F)c2cc1CN(C)C1(C(N)=O)CN(C(C)C)C1 | > 10

Molecular target: Proto-oncogene tyrosine-protein kinase Src (Homo sapiens, UniProt P12931)
Sequence (P12931 2-536 limits assumed): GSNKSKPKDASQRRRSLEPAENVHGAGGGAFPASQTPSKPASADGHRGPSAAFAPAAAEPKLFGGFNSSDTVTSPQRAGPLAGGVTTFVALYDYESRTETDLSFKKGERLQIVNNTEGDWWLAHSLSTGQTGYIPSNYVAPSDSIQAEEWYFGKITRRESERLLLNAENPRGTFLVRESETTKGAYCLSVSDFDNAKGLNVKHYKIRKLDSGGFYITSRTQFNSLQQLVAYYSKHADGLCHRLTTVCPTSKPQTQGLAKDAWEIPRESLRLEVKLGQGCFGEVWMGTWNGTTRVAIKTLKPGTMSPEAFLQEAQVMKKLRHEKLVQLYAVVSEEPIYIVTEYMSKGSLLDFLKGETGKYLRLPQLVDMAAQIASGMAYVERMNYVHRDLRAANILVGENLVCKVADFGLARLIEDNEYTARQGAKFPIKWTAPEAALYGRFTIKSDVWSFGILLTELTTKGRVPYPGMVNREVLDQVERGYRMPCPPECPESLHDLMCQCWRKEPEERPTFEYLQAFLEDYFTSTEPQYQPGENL
Assay: Inhibition of Src
Settings: not given

Row | IC50 [µM] | SMILES
6 | > 10 | COc1cc2ncnc(Nc3cccc(Cl)c3F)c2cc1CN(C(C)C)[C@@H](C)C(N)=O
7 | > 10 | COc1cc2ncnc(Nc3cccc(Cl)c3F)c2cc1CN1CCC[C@H]1CC(N)=O

Second part, the molecule before the results:

Row | SMILES | IC50 [µM]
8 | COCCN1CC(C(N)=O)(N(C)Cc2cc3c(Nc4cccc(Cl)c4F)ncnc3cc2OC)C1 | > 10
9 | COc1cc2ncnc(Nc3cccc(Cl)c3F)c2cc1CN(C)C1(C(N)=O)CCN(C(C)C)CC1 | > 10
10 | COc1cc2ncnc(Nc3cccc(Cl)c3F)c2cc1CN(C)C1(C(N)=O)CN(C(C)C)C1 | > 10

Molecular target: T1, Serine/threonine-protein kinase Chk1 (Homo sapiens, UniProt O14757)
T1 sequence (O14757 whole entry): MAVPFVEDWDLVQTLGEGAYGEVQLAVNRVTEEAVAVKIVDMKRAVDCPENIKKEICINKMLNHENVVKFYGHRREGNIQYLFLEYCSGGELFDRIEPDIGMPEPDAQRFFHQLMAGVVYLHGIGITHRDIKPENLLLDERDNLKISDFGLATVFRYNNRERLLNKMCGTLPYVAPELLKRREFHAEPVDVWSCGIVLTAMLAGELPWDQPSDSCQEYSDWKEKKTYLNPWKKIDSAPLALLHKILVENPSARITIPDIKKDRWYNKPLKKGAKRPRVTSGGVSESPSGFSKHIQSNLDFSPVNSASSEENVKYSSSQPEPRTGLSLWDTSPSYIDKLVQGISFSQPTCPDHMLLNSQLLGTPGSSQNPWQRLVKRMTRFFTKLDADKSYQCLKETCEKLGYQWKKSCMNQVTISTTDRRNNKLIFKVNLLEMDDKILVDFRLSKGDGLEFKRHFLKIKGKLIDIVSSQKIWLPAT
Assay: Inhibition of CHK1
Settings: not given

Row | IC50 [µM] | SMILES
11 | > 10 | COc1cc2ncnc(Nc3cccc(Cl)c3F)c2cc1CN(C(C)C)[C@@H](C)C(N)=O
12 | > 10 | COc1cc2ncnc(Nc3cccc(Cl)c3F)c2cc1CN1CCC[C@H]1CC(N)=O

Second part, the molecule before the results:

Row | SMILES | IC50 [µM]
13 | COCCN1CC(C(N)=O)(N(C)Cc2cc3c(Nc4cccc(Cl)c4F)ncnc3cc2OC)C1 | > 10
14 | COc1cc2ncnc(Nc3cccc(Cl)c3F)c2cc1CN(C)C1(C(N)=O)CCN(C(C)C)CC1 | > 10
15 | COc1cc2ncnc(Nc3cccc(Cl)c3F)c2cc1CN(C)C1(C(N)=O)CN(C(C)C)C1 | > 10

Molecular target: Vascular endothelial growth factor receptor 2 (Homo sapiens, UniProt P35968)
Sequence (P35968 whole entry): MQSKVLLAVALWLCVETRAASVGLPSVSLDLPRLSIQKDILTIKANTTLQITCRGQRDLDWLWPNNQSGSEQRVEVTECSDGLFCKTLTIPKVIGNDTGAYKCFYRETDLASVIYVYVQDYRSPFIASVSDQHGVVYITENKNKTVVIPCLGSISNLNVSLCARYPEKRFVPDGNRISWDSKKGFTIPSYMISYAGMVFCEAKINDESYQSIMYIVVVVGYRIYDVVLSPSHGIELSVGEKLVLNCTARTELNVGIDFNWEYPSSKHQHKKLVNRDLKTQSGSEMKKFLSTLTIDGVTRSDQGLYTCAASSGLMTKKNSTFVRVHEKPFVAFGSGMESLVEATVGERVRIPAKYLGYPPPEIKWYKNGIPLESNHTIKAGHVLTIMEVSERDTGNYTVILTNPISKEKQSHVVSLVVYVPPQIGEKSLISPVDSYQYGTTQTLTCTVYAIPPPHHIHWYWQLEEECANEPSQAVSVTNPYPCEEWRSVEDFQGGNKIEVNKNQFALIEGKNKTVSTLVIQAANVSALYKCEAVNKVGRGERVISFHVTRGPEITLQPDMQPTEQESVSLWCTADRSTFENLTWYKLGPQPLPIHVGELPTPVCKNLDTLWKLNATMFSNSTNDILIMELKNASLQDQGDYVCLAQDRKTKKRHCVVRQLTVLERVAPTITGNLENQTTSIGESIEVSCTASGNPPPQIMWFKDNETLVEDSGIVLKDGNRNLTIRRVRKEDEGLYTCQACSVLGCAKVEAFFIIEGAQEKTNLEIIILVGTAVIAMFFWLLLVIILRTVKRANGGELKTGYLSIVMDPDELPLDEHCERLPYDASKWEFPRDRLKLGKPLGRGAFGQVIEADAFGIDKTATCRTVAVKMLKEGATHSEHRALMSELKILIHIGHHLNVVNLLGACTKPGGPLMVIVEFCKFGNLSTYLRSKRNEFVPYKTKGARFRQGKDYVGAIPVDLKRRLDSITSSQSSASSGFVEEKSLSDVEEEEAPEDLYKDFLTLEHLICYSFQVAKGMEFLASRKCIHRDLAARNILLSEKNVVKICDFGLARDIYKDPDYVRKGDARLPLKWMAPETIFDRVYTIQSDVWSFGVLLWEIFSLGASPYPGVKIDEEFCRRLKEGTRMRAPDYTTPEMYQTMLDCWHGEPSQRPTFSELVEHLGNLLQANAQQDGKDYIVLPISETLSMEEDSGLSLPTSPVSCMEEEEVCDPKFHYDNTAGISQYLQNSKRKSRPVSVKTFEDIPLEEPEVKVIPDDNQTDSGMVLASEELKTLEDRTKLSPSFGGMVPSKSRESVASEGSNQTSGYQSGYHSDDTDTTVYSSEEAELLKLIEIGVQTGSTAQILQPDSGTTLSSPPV
Settings: not given

Row | IC50 [µM] | SMILES
16 | > 10 | COc1cc2ncnc(Nc3cccc(Cl)c3F)c2cc1CN(C(C)C)[C@@H](C)C(N)=O
17 | > 10 | COc1cc2ncnc(Nc3cccc(Cl)c3F)c2cc1CN1CCC[C@H]1CC(N)=O

Second part, the molecule before the results:

Row | SMILES | IC50 [µM]
18 | COCCN1CC(C(N)=O)(N(C)Cc2cc3c(Nc4cccc(Cl)c4F)ncnc3cc2OC)C1 | > 10
19 | COc1cc2ncnc(Nc3cccc(Cl)c3F)c2cc1CN(C)C1(C(N)=O)CCN(C(C)C)CC1 | > 10
20 | COc1cc2ncnc(Nc3cccc(Cl)c3F)c2cc1CN(C)C1(C(N)=O)CN(C(C)C)C1 | > 10

Tested on: not listed separately
Assay: Volume of distribution in rat
Format: ADME, organism-based
Settings: in vivo, read-out: Vdss

Row | SMILES | Vd [L/kg]
21 | COCCN1CC(C(N)=O)(N(C)Cc2cc3c(Nc4cccc(Cl)c4F)ncnc3cc2OC)C1 | 4.2
22 | COc1cc2ncnc(Nc3cccc(Cl)c3F)c2cc1CN(C)C1(C(N)=O)CCN(C(C)C)CC1 | 4.9
23 | COc1cc2ncnc(Nc3cccc(Cl)c3F)c2cc1CN(C)C1(C(N)=O)CN(C(C)C)C1 | 7.2

Tested on: not listed separately
Assay: Solubility in phosphate buffer at pH 7.4
Format: physicochemical
Settings: not given

Row | SMILES | solubility [µM]
24 | COc1cc2ncnc(Nc3cccc(Cl)c3F)c2cc1CN(C(C)C)[C@@H](C)C(N)=O | 1 (≈ 0.446 µg/mL)

Molecular target: Mitogen-activated protein kinase 1 (Homo sapiens, UniProt P28482)
Sequence (P28482 whole entry): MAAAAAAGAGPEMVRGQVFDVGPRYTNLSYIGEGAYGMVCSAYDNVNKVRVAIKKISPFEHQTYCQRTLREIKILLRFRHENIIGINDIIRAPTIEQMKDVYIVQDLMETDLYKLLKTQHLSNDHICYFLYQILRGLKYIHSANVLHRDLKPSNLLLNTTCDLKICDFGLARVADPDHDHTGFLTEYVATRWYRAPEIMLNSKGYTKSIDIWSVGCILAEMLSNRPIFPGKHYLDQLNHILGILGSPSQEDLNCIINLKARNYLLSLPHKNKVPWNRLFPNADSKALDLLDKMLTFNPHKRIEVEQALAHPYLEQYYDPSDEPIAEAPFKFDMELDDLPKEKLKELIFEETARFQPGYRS
Assay: Inhibition of MAPK
Settings: not given

Row | IC50 [µM] | SMILES
25 | > 10 | COc1cc2ncnc(Nc3cccc(Cl)c3F)c2cc1CN(C(C)C)[C@@H](C)C(N)=O
26 | > 10 | COc1cc2ncnc(Nc3cccc(Cl)c3F)c2cc1CN1CCC[C@H]1CC(N)=O

The next lines start with the molecule.

Row | SMILES | IC50 [µM]
27 | COCCN1CC(C(N)=O)(N(C)Cc2cc3c(Nc4cccc(Cl)c4F)ncnc3cc2OC)C1 | > 10
28 | COc1cc2ncnc(Nc3cccc(Cl)c3F)c2cc1CN(C)C1(C(N)=O)CCN(C(C)C)CC1 | > 10
29 | COc1cc2ncnc(Nc3cccc(Cl)c3F)c2cc1CN(C)C1(C(N)=O)CN(C(C)C)C1 | > 10

Tested on: not listed separately
Assay: Inhibition of CDK
Settings: not given

Row | SMILES | IC50 [µM]
30 | COCCN1CC(C(N)=O)(N(C)Cc2cc3c(Nc4cccc(Cl)c4F)ncnc3cc2OC)C1 | > 10
31 | COc1cc2ncnc(Nc3cccc(Cl)c3F)c2cc1CN1CCC[C@H]1CC(N)=O | > 10

Tested on: not listed separately
Assay: Dissociation constant, pKa of the compound
Format: physicochemical
Settings: not given

Row | SMILES | pKa
32 | COCCN1CC(C(N)=O)(N(C)Cc2cc3c(Nc4cccc(Cl)c4F)ncnc3cc2OC)C1 | 7.1
33 | COc1cc2ncnc(Nc3cccc(Cl)c3F)c2cc1CN(C)C1(C(N)=O)CCN(C(C)C)CC1 | 9.1
34 | COc1cc2ncnc(Nc3cccc(Cl)c3F)c2cc1CN(C)C1(C(N)=O)CN(C(C)C)C1 | 7.8

Tested on: not listed separately
Assay: Clearance in rat
Format: ADME, organism-based
Settings: in vivo

Row | SMILES | clearance [mL/min/kg]
35 | COCCN1CC(C(N)=O)(N(C)Cc2cc3c(Nc4cccc(Cl)c4F)ncnc3cc2OC)C1 | 35
36 | COc1cc2ncnc(Nc3cccc(Cl)c3F)c2cc1CN(C)C1(C(N)=O)CCN(C(C)C)CC1 | 114
37 | COc1cc2ncnc(Nc3cccc(Cl)c3F)c2cc1CN(C)C1(C(N)=O)CN(C(C)C)C1 | 61

Tested on: not listed separately
Assay: Bioavailability in rat
Format: ADME, organism-based
Settings: in vivo

Row | SMILES | bioavailability [%]
38 | COCCN1CC(C(N)=O)(N(C)Cc2cc3c(Nc4cccc(Cl)c4F)ncnc3cc2OC)C1 | < 50
39 | COc1cc2ncnc(Nc3cccc(Cl)c3F)c2cc1CN(C)C1(C(N)=O)CCN(C(C)C)CC1 | < 50
40 | COc1cc2ncnc(Nc3cccc(Cl)c3F)c2cc1CN(C)C1(C(N)=O)CN(C(C)C)C1 | < 50

Molecular target: Rho-associated protein kinase 2 (Homo sapiens, UniProt O75116)
Sequence (O75116 whole entry): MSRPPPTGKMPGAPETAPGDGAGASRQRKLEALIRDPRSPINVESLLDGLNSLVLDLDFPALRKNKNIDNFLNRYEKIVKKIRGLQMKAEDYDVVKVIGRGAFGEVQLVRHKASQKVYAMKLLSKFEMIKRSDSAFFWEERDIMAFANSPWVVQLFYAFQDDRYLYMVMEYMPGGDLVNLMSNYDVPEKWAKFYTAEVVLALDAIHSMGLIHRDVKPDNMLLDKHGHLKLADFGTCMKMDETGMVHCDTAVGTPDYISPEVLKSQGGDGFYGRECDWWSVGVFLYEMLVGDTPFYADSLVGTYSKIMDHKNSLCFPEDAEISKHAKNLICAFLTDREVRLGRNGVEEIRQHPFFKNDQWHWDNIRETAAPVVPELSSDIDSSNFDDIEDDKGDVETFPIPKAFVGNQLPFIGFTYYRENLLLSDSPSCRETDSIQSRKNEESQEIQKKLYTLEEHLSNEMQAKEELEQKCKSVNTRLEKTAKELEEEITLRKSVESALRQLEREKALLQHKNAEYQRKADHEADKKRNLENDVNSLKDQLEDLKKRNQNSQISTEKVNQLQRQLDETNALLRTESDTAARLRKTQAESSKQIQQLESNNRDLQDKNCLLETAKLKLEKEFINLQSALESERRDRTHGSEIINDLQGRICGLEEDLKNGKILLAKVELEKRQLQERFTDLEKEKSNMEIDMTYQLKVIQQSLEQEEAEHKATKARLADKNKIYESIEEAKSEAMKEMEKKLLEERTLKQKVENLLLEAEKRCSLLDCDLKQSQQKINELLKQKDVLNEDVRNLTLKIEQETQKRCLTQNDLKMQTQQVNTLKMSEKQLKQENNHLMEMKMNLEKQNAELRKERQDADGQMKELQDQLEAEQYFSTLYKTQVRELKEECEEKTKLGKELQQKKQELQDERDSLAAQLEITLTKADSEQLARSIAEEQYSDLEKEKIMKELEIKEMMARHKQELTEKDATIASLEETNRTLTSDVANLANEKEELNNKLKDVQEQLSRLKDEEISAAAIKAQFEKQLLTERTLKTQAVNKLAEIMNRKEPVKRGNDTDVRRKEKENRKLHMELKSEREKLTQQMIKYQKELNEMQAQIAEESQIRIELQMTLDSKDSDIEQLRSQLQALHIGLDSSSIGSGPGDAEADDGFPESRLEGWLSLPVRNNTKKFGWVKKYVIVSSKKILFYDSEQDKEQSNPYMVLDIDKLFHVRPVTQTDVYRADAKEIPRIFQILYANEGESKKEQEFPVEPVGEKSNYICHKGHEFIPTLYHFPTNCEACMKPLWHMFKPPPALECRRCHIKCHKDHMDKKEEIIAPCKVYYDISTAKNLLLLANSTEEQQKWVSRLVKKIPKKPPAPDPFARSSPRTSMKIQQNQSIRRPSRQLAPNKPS
Assay: Inhibition of ROCK2
Settings: not given

Row | IC50 [µM] | SMILES
41 | > 10 | COc1cc2ncnc(Nc3cccc(Cl)c3F)c2cc1CN(C(C)C)[C@@H](C)C(N)=O
42 | > 10 | COc1cc2ncnc(Nc3cccc(Cl)c3F)c2cc1CN1CCC[C@H]1CC(N)=O

Second part, the molecule before the results:

Row | SMILES | IC50 [µM]
43 | COCCN1CC(C(N)=O)(N(C)Cc2cc3c(Nc4cccc(Cl)c4F)ncnc3cc2OC)C1 | > 10
44 | COc1cc2ncnc(Nc3cccc(Cl)c3F)c2cc1CN(C)C1(C(N)=O)CCN(C(C)C)CC1 | > 10
45 | COc1cc2ncnc(Nc3cccc(Cl)c3F)c2cc1CN(C)C1(C(N)=O)CN(C(C)C)C1 | > 10

Molecular target: T2, Serine/threonine-protein kinase Sgk1 (Homo sapiens, UniProt O00141)
T2 sequence (O00141 whole entry): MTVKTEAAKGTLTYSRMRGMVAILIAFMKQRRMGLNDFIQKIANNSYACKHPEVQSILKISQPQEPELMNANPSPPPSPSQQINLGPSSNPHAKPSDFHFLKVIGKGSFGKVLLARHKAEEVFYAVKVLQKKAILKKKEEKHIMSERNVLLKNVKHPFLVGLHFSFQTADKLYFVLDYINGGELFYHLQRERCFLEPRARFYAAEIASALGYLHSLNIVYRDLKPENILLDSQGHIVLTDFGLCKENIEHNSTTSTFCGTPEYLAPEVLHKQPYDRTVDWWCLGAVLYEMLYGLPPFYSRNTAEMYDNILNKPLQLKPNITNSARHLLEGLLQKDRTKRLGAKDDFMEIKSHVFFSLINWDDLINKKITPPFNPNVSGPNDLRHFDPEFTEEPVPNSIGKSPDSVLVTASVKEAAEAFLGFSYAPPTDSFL
Assay: Inhibition of SGK
Settings: not given

Row | IC50 [µM] | SMILES
46 | > 10 | COc1cc2ncnc(Nc3cccc(Cl)c3F)c2cc1CN(C(C)C)[C@@H](C)C(N)=O
47 | > 10 | COc1cc2ncnc(Nc3cccc(Cl)c3F)c2cc1CN1CCC[C@H]1CC(N)=O

More lines, now with the values behind:

Row | SMILES | IC50 [µM]
48 | COCCN1CC(C(N)=O)(N(C)Cc2cc3c(Nc4cccc(Cl)c4F)ncnc3cc2OC)C1 | > 10
49 | COc1cc2ncnc(Nc3cccc(Cl)c3F)c2cc1CN(C)C1(C(N)=O)CCN(C(C)C)CC1 | > 10
50 | COc1cc2ncnc(Nc3cccc(Cl)c3F)c2cc1CN(C)C1(C(N)=O)CN(C(C)C)C1 | > 10

Molecular target: AMP-activated protein kinase, AMPK
Assay: Inhibition of AMPK
Format: protein-complex assay
Settings: not given

Row | IC50 [µM] | SMILES
51 | > 10 | COc1cc2ncnc(Nc3cccc(Cl)c3F)c2cc1CN(C(C)C)[C@@H](C)C(N)=O
52 | > 10 | COc1cc2ncnc(Nc3cccc(Cl)c3F)c2cc1CN1CCC[C@H]1CC(N)=O

Further lines, the molecule ahead of its results:

Row | SMILES | IC50 [µM]
53 | COCCN1CC(C(N)=O)(N(C)Cc2cc3c(Nc4cccc(Cl)c4F)ncnc3cc2OC)C1 | > 10
54 | COc1cc2ncnc(Nc3cccc(Cl)c3F)c2cc1CN(C)C1(C(N)=O)CCN(C(C)C)CC1 | > 10
55 | COc1cc2ncnc(Nc3cccc(Cl)c3F)c2cc1CN(C)C1(C(N)=O)CN(C(C)C)C1 | > 10

Molecular target: cAMP-dependent protein kinase (PKA) (Homo sapiens, UniProt P22694+P17612+P22612)
Assay: Inhibition of PKA
Format: protein assay
Settings: not given

Row | IC50 [µM] | SMILES
56 | > 10 | COc1cc2ncnc(Nc3cccc(Cl)c3F)c2cc1CN(C(C)C)[C@@H](C)C(N)=O
57 | > 10 | COc1cc2ncnc(Nc3cccc(Cl)c3F)c2cc1CN1CCC[C@H]1CC(N)=O

The next lines start with the molecule.

Row | SMILES | IC50 [µM]
58 | COCCN1CC(C(N)=O)(N(C)Cc2cc3c(Nc4cccc(Cl)c4F)ncnc3cc2OC)C1 | > 10
59 | COc1cc2ncnc(Nc3cccc(Cl)c3F)c2cc1CN(C)C1(C(N)=O)CN(C(C)C)C1 | > 10

Molecular target: c-Jun N-terminal kinase, JNK (Homo sapiens, UniProt P45983+P53779+P45984)
Assay: Inhibition of JNK
Format: protein assay
Settings: not given

Row | IC50 [µM] | SMILES
60 | > 10 | COc1cc2ncnc(Nc3cccc(Cl)c3F)c2cc1CN(C(C)C)[C@@H](C)C(N)=O
61 | > 10 | COc1cc2ncnc(Nc3cccc(Cl)c3F)c2cc1CN1CCC[C@H]1CC(N)=O

Continued, molecule first:

Row | SMILES | IC50 [µM]
62 | COCCN1CC(C(N)=O)(N(C)Cc2cc3c(Nc4cccc(Cl)c4F)ncnc3cc2OC)C1 | > 10
63 | COc1cc2ncnc(Nc3cccc(Cl)c3F)c2cc1CN(C)C1(C(N)=O)CCN(C(C)C)CC1 | > 10
64 | COc1cc2ncnc(Nc3cccc(Cl)c3F)c2cc1CN(C)C1(C(N)=O)CN(C(C)C)C1 | > 10

Molecular target: Tyrosine-protein kinase Lck (Homo sapiens, UniProt P06239)
Sequence (P06239 whole entry): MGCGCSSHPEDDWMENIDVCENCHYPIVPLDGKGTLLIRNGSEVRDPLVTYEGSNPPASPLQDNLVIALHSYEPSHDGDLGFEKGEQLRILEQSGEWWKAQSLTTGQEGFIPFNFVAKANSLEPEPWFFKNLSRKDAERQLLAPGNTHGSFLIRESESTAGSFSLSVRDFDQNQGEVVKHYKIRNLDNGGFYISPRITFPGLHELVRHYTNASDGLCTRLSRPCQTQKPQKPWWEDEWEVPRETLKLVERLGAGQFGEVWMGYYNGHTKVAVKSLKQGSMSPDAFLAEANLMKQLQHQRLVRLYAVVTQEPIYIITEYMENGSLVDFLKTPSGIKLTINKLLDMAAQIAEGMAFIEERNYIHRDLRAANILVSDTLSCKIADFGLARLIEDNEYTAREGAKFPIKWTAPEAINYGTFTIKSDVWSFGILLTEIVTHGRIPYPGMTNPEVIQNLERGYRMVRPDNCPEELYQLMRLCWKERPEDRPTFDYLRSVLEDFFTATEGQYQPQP
Settings: not given

Row | SMILES | IC50 [µM]
65 | COCCN1CC(C(N)=O)(N(C)Cc2cc3c(Nc4cccc(Cl)c4F)ncnc3cc2OC)C1 | > 10
66 | COc1cc2ncnc(Nc3cccc(Cl)c3F)c2cc1CN1CCC[C@H]1CC(N)=O | > 10
67 | COc1cc2ncnc(Nc3cccc(Cl)c3F)c2cc1CN(C)C1(C(N)=O)CN(C(C)C)C1 | > 10

Molecular target: MAP kinase p38 (Homo sapiens, UniProt O15264+Q15759+Q16539+P53778)
Settings: not given

Row | SMILES | IC50 [µM]
68 | COCCN1CC(C(N)=O)(N(C)Cc2cc3c(Nc4cccc(Cl)c4F)ncnc3cc2OC)C1 | > 10
69 | COc1cc2ncnc(Nc3cccc(Cl)c3F)c2cc1CN1CCC[C@H]1CC(N)=O | > 10
